According to ChEMBL document CHEMBL1201862, “PubChem BioAssay data set” (2004):
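Five compound concentrations were applied to cells in 96-well plates for 48 hours; endpoints were derived by simple linear interpolation of the resulting dose-response curve. GI50 = concentration required for 50% inhibition of growth.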 Activity calls are given as the source filed them. No stated cut-off is given here; in the data, active = GI50 up to about 1.1 µM and inactive = higher. Square brackets hold non-standard residues; d marks the D form. Peptide text beside a SMILES is read from it. pGlu = O=C1CC[C@@H](C(=O)O)N1; Thz = O=C(O)[C@@H]1CSCN1

What was measured:
Test in all cases: NCI anticancer screen, dose series, 48 h
786-0 = system: 786-0
ACHN = system: ACHN
BT-549 = system: BT-549
CAKI-1 = system: CAKI-1
CCRF-CEM = system: CCRF-CEM
DU-145 = system: DU-145
HCT-116 = system: HCT-116
HCT-15 = system: HCT-15
HOP-92 = system: HOP-92
HT-29 = system: HT-29
Hs-578T = system: Hs-578T
IGROV-1 = system: IGROV-1
KM12 = system: KM12
NCI-H460 = system: NCI-H460
SF-295 = system: SF-295
SK-MEL-28 = system: SK-MEL-28
SW-620 = system: SW-620
T47D = system: T47D
UO-31 = system: UO-31
RXF 393 = system: RXF 393

Structure (SMILES) | GI50 (786-0) | GI50 (ACHN) | GI50 (BT-549) | GI50 (CAKI-1) | GI50 (CCRF-CEM) | GI50 (DU-145) | GI50 (HCT-116) | GI50 (HCT-15) | GI50 (HOP-92) | GI50 (HT-29) | GI50 (Hs-578T) | GI50 (IGROV-1) | GI50 (KM12) | GI50 (NCI-H460) | GI50 (SF-295) | GI50 (SK-MEL-28) | GI50 (SW-620) | GI50 (T47D) | GI50 (UO-31) | GI50 (RXF 393)
CC(C)C1(NC(=O)C2CC3c4cccc5[nH]cc(c45)CC3N(C)C2)OC2(O)C3CCCN3C(=O)C(Cc3ccccc3)N2C1=O (stereo not given) | 36.7 µM (inactive) | 21.4 µM (inactive) | 55 µM (inactive) | 26 µM (inactive) | 5.9 µM (inactive) | 51.2 µM (inactive) | 16.9 µM (inactive) | 23.6 µM | 18.6 µM (inactive) | 11.6 µM (inactive) | 27.6 µM (inactive) | 36.4 µM (inactive) | 15.2 µM (inactive) | 19.2 µM (inactive) | 16.7 µM (inactive) | 24.9 µM (inactive) | 32.3 µM (inactive) | 11.9 µM (inactive) | 12.9 µM (inactive) | 
COc1cc(C(=O)OC2CC(C)=CC[C@@]3(C)CC[C@](O)(C(C)C)C23)ccc1O (stereo not given in full) | 17.3 µM (inactive) | 18.4 µM (inactive) |  | 16.3 µM (inactive) | 26.3 µM (inactive) | 17.9 µM (inactive) | 19 µM (inactive) | 18.6 µM | 16.3 µM (inactive) | 15.9 µM (inactive) | 17.3 µM (inactive) | 19 µM (inactive) | 15.9 µM (inactive) | 16.6 µM (inactive) | 21.7 µM (inactive) | 30.3 µM (inactive) | 28.5 µM (inactive) | 22.3 µM (inactive) | 16.4 µM (inactive) | 18.4 µM (inactive)
O=C(Nc1nnc(-c2c(Cl)c(Cl)c(Cl)c(Cl)c2-c2nc3cc(C(=O)c4ccccc4)ccc3[nH]2)o1)c1ccccc1 | 16.8 µM (inactive) | 19.5 µM (inactive) | 23.5 µM (inactive) | 32.3 µM (inactive) | 8.36 µM (inactive) | 17.5 µM (inactive) | 23.3 µM (inactive) | 9.98 µM | 15.5 µM (inactive) | 23.8 µM (inactive) |  | 13.6 µM (inactive) | 23.2 µM (inactive) |  | 9.46 µM (inactive) | 12.1 µM (inactive) | 19.9 µM (inactive) | 16.4 µM (inactive) | 31.8 µM (inactive) | 12.3 µM (inactive)
O=C(O)C[C@@H]1[C@@H](O)[C@@H](O)CN2C(=O)c3ccccc3[C@H]12 | > 100 µM (inactive) | > 100 µM (inactive) | > 100 µM (inactive) | > 100 µM (inactive) |  | > 100 µM (inactive) | > 100 µM (inactive) | > 100 µM |  | > 100 µM (inactive) |  | > 100 µM (inactive) | > 100 µM (inactive) | > 100 µM (inactive) | > 100 µM (inactive) | > 100 µM (inactive) | > 100 µM (inactive) | > 100 µM (inactive) | > 100 µM (inactive) | > 100 µM (inactive)
COc1cccc(N2N=C3c4ccccc4-n4c(nc5ccccc54)C3C2N)c1 (stereo not given) | > 100 µM (inactive) | > 100 µM (inactive) | > 100 µM (inactive) | > 100 µM (inactive) |  | > 100 µM (inactive) | > 100 µM (inactive) | > 100 µM | > 100 µM (inactive) | > 100 µM (inactive) | > 100 µM (inactive) | > 100 µM (inactive) | > 100 µM (inactive) | > 100 µM (inactive) | > 100 µM (inactive) | > 100 µM (inactive) | > 100 µM (inactive) | > 100 µM (inactive) | > 100 µM (inactive) | 
CSc1c(C(=O)Nc2ccc(Cl)cc2)c(N)n(N)c(=O)c1C#N | > 100 µM (inactive) |  | > 100 µM (inactive) | 34.2 µM (inactive) | 42.4 µM (inactive) | > 100 µM (inactive) | 32.6 µM (inactive) | 77.4 µM |  | > 100 µM (inactive) | > 100 µM (inactive) |  | 45.9 µM (inactive) | > 100 µM (inactive) |  | > 100 µM (inactive) | 95.5 µM (inactive) | 31.3 µM (inactive) | 31.6 µM (inactive) | > 100 µM (inactive)
CC(CCc1ccccc1)NCC(O)n1c(/N=N/N(C)C)nc2c1c(=O)n(C)c(=O)n2C (stereo not given) | > 100 µM (inactive) | > 100 µM (inactive) | > 100 µM (inactive) | 88.7 µM (inactive) | > 100 µM (inactive) |  | > 100 µM (inactive) | > 100 µM | > 100 µM (inactive) | > 100 µM (inactive) | > 100 µM (inactive) | > 100 µM (inactive) | > 100 µM (inactive) | 41.1 µM (inactive) | > 100 µM (inactive) | > 100 µM (inactive) | > 100 µM (inactive) | > 100 µM (inactive) | > 100 µM (inactive) | > 100 µM (inactive)
Cc1c(/C=N/NC(=S)Nc2ccc([N+](=O)[O-])cc2)c(=O)n(-c2ccccc2)n1C | 14.3 µM (inactive) | 11.5 µM (inactive) | 15.7 µM (inactive) | 6.85 µM (inactive) | 7.29 µM (inactive) |  | 18.6 µM (inactive) | 3.08 µM | 11.8 µM (inactive) | 12.9 µM (inactive) | 15.8 µM (inactive) | 12.5 µM (inactive) | 13.1 µM (inactive) |  | 8.53 µM (inactive) | > 100 µM (inactive) | 25.6 µM (inactive) |  | 11.4 µM (inactive) | 12.4 µM (inactive)
CCOP(=O)(OCC)/C(C#N)=C/c1ncc[nH]1 | > 100 µM (inactive) | > 100 µM (inactive) | > 100 µM (inactive) | > 100 µM (inactive) | > 100 µM (inactive) | > 100 µM (inactive) | > 100 µM (inactive) | > 10 µM | > 100 µM (inactive) | > 100 µM (inactive) | > 100 µM (inactive) | > 10 µM (inactive) | > 100 µM (inactive) | > 100 µM (inactive) | > 100 µM (inactive) | > 100 µM (inactive) | > 100 µM (inactive) |  | > 100 µM (inactive) | > 100 µM (inactive)
Nc1nc(O)c2nc(CNc3ccc(C(=O)NC(CCC(=O)O)C(=O)O)cc3)cnc2n1 (stereo not given) | > 100 µM (inactive) | > 100 µM (inactive) | > 100 µM (inactive) |  | > 100 µM (inactive) |  |  | > 100 µM |  | > 100 µM (inactive) | > 100 µM (inactive) | > 100 µM (inactive) | > 100 µM (inactive) | > 100 µM (inactive) | > 100 µM (inactive) | > 100 µM (inactive) | > 100 µM (inactive) |  | > 100 µM (inactive) | > 100 µM (inactive)
O=C1CC[C@@H](C(=O)N2CSC[C@H]2C(=O)O)N1 [PIDOTIMOD] ([pGlu]-[Thz]-OH) | > 100 µM (inactive) | > 100 µM (inactive) | > 100 µM (inactive) | > 100 µM (inactive) | > 100 µM (inactive) | > 100 µM (inactive) |  | > 100 µM |  | > 100 µM (inactive) | > 100 µM (inactive) | > 100 µM (inactive) | > 100 µM (inactive) | > 100 µM (inactive) | > 100 µM (inactive) | > 100 µM (inactive) | > 100 µM (inactive) | > 100 µM (inactive) | > 100 µM (inactive) | > 100 µM (inactive)
